Measured values: PubChem BioAssay (NCI)
Where “and” joins values, the source holds several entries; their conditions need not be identical. Equal entries are not always repeated.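 The compound was tested at five concentrations on cells cultured in 96-well plates, with a 48-hour exposure period. GI50 = concentration required for 50% inhibition of growth. At the TGI there is no net growth.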

Columns and labels:
Assay in all cases: growth of human tumour cells (NCI), 48 h
[1] = test system: HL-60(TB) leukemia
[2] = test system: MALME-3M melanoma
[3] = test system: MOLT-4 leukemia
[4] = test system: MDA-MB-435
[5] = test system: HS 578T breast
[6] = test system: NCI-H460 lung
[7] = test system: OVCAR-4 ovarian
[8] = test system: RPMI-8226 leukemia
[9] = test system: SK-MEL-28 melanoma
[10] = test system: BT-549 breast
[11] = test system: PC-3 prostate
[12] = test system: A549 NSCLC
[13] = test system: A498 renal
[14] = test system: SF-295 CNS
[15] = test system: SNB-19 CNS
[16] = test system: SK-OV-3 ovarian
[17] = test system: UACC-62 melanoma
[18] = test system: COLO 205 colon
[19] = test system: HCC-2998 colon
[20] = test system: SR leukemia
[21] = test system: 786-0 renal
[22] = test system: HOP-62 NSCLC
[23] = test system: ACHN renal
[24] = test system: SF-268 CNS
[25] = test system: HT29 colon
[26] = test system: UO-31 renal
[27] = test system: DU-145 prostate
[28] = test system: NCI/ADR-RES ovarian
[29] = test system: CAKI-1 renal
[30] = test system: NCI-H226 lung
[31] = test system: K-562 leukemia
[32] = test system: SK-MEL-5 melanoma
[33] = test system: SK-MEL-2 melanoma
[34] = test system: OVCAR-3 ovarian
[35] = test system: KM12 colon
[36] = test system: M14 melanoma
[37] = test system: NCI-H23 lung
[38] = test system: TK-10 renal
[39] = test system: IGROV1 ovarian
[40] = test system: LOX IMVI melanoma
[41] = test system: U251 CNS
[42] = test system: SW-620 colon
[43] = test system: SF-539 CNS
[44] = test system: OVCAR-5 ovarian
[45] = test system: MDA-MB-231 breast
[46] = test system: UACC-257 melanoma
[47] = test system: NCI-H522 lung
[48] = test system: CCRF-CEM leukemia
[49] = test system: HCT-116 colon
[50] = test system: RXF 393 renal
[51] = test system: EKVX NSCLC
[52] = test system: SNB-75 CNS
[53] = test system: T-47D breast
[54] = test system: MCF7 breast
[55] = test system: OVCAR-8 ovarian
[56] = test system: HOP-92 NSCLC
[57] = test system: HCT-15 colon

For `Cn1cnc2c(NCc3ccccc3)nc(NCCO)nc21`, which GI50 [1] is on record?
The GI50 was 73.2 µM.

What about the TGI [1] of the same molecule?
The TGI was > 73 µM and 220 µM.

And the TGI [2]?
Its TGI is 241 µM.

And the GI50 [3]?
The GI50 was 103 µM.

And the TGI [3]?
The TGI was 356 µM.

And the GI50 [4]?
Its GI50 is 114 µM.

What about the TGI [4] of the same molecule?
Its TGI is 313 µM.

What about the GI50 [5] of the same molecule?
The GI50 was 162 µM.

And the TGI [5]?
The TGI was 465 µM.

What about the GI50 [6] of the same molecule?
Its GI50 is 77.8 µM.

And the TGI [6]?
Its TGI is 441 µM.

What about the GI50 [7] of the same molecule?
The GI50 was 110 µM.

What about the TGI [7] of the same molecule?
The TGI was 339 µM.

What about the GI50 [8] of the same molecule?
The GI50 was 81.2 µM.

What about the TGI [8] of the same molecule?
The TGI was greater than 339 µM.

What about the GI50 [9] of the same molecule?
The GI50 was 88.7 µM.

What about the TGI [9] of the same molecule?
Its TGI is 280 µM.

What about the GI50 [10] of the same molecule?
The GI50 was 147 µM.

And the TGI [10]?
The TGI was greater than 454 µM.

And the GI50 [11]?
Its GI50 is 41.4 µM.

And the TGI [11]?
Its TGI is 283 µM.

And the GI50 [12]?
Its GI50 is 105 µM.

And the TGI [12]?
Its TGI is greater than 458 µM.

What about the GI50 [13] of the same molecule?
The GI50 was 28.8 µM.

And the TGI [13]?
The TGI was 83.3 µM and 311 µM.

And the GI50 [14]?
The GI50 was 122 µM.

And the TGI [14]?
The TGI was greater than 500 µM.

And the GI50 [15]?
The GI50 was 98.9 µM.

What about the TGI [15] of the same molecule?
Its TGI is 382 µM.

What about the GI50 [16] of the same molecule?
Its GI50 is 241 µM.

And the TGI [16]?
Its TGI is greater than 460 µM.

And the GI50 [17]?
The GI50 was 67.5 µM.

What about the TGI [17] of the same molecule?
Its TGI is > 89.9 µM and 302 µM.

What about the GI50 [18] of the same molecule?
Its GI50 is 82.2 µM.

What about the TGI [18] of the same molecule?
Its TGI is 69.7 µM and 282 µM.

What about the GI50 [19] of the same molecule?
Its GI50 is 115 µM.

What about the TGI [19] of the same molecule?
Its TGI is 356 µM.

And the GI50 [20]?
The GI50 was 69.1 µM.

And the TGI [20]?
The TGI was > 87 µM and 237 µM.

And the GI50 [21]?
Its GI50 is 105 µM.

What about the TGI [21] of the same molecule?
Its TGI is greater than 435 µM.

And the TGI [22]?
Its TGI is > 86 µM and 183 µM.

What about the GI50 [23] of the same molecule?
The GI50 was 92.7 µM.

What about the TGI [23] of the same molecule?
The TGI was greater than 468 µM.

What about the GI50 [24] of the same molecule?
The GI50 was 86.2 µM.

What about the TGI [24] of the same molecule?
Its TGI is > 91.2 µM and 223 µM.

And the GI50 [25]?
The GI50 was 83.6 µM.

What about the TGI [25] of the same molecule?
Its TGI is 336 µM.

What about the GI50 [26] of the same molecule?
The GI50 was 93.6 µM.

And the TGI [26]?
Its TGI is > 96.2 µM and 420 µM.

What about the GI50 [27] of the same molecule?
The GI50 was 125 µM.

And the TGI [27]?
Its TGI is greater than 500 µM.

What about the TGI [28] of the same molecule?
Its TGI is 319 µM.

What about the GI50 [29] of the same molecule?
The GI50 was 63.6 µM.

What about the TGI [29] of the same molecule?
The TGI was > 90.6 µM and 265 µM.

What about the GI50 [30] of the same molecule?
Its GI50 is 17.5 µM.

And the TGI [30]?
Its TGI is > 93.2 µM and 183 µM.

And the TGI [31]?
The TGI was 489 µM.

What about the GI50 [32] of the same molecule?
The GI50 was 96.4 µM.

What about the TGI [32] of the same molecule?
The TGI was 220 µM.

And the GI50 [33]?
Its GI50 is 44.4 µM.

What about the TGI [33] of the same molecule?
The TGI was 178 µM.

What about the GI50 [34] of the same molecule?
Its GI50 is 33 µM and 115 µM.

And the TGI [34]?
Its TGI is greater than 406 µM.

And the GI50 [35]?
Its GI50 is 62.1 µM.

What about the TGI [35] of the same molecule?
Its TGI is 344 µM.

What about the GI50 [36] of the same molecule?
The GI50 was 51 µM.

What about the TGI [36] of the same molecule?
The TGI was 120 µM.

What about the GI50 [37] of the same molecule?
Its GI50 is 110 µM.

And the TGI [37]?
The TGI was 382 µM.

And the GI50 [38]?
The GI50 was 135 µM.

And the TGI [38]?
Its TGI is greater than 456 µM.

What about the GI50 [39] of the same molecule?
The GI50 was 67.9 µM.

What about the TGI [39] of the same molecule?
The TGI was 334 µM.

And the GI50 [40]?
The GI50 was 48.4 µM.

What about the TGI [40] of the same molecule?
The TGI was 81.4 µM and > 395 µM.

And the GI50 [41]?
The GI50 was 133 µM.

What about the TGI [41] of the same molecule?
The TGI was greater than 500 µM.

And the GI50 [42]?
Its GI50 is 158 µM.

And the TGI [42]?
The TGI was greater than 426 µM.

And the GI50 [43]?
Its GI50 is 36.7 µM.

And the TGI [43]?
The TGI was > 90 µM and 92.7 µM.

What about the TGI [44] of the same molecule?
The TGI was greater than 217 µM.

And the GI50 [45]?
Its GI50 is 116 µM.

And the TGI [45]?
The TGI was 479 µM.

What about the GI50 [46] of the same molecule?
Its GI50 is 155 µM.

And the TGI [46]?
Its TGI is greater than 474 µM.

And the GI50 [47]?
Its GI50 is 90.6 µM.

What about the TGI [47] of the same molecule?
Its TGI is 322 µM.

And the GI50 [48]?
Its GI50 is 143 µM.

And the TGI [48]?
The TGI was 98.2 µM and 353 µM.

What about the GI50 [49] of the same molecule?
The GI50 was 49.3 µM.

What about the TGI [49] of the same molecule?
Its TGI is > 96.5 µM and 321 µM.

And the GI50 [50]?
The GI50 was 17.7 µM.

What about the TGI [50] of the same molecule?
Its TGI is 40.4 µM and 187 µM.

What about the GI50 [51] of the same molecule?
Its GI50 is 57 µM.

And the TGI [51]?
The TGI was 170 µM.

And the GI50 [52]?
The GI50 was 64.7 µM.

What about the TGI [52] of the same molecule?
The TGI was 70.8 µM and 150 µM.

And the GI50 [53]?
Its GI50 is 206 µM.

And the TGI [53]?
Its TGI is greater than 408 µM.

What about the GI50 [54] of the same molecule?
Its GI50 is 62.9 µM.

What about the TGI [54] of the same molecule?
Its TGI is 90.4 µM and > 268 µM.

What about the GI50 [55] of the same molecule?
The GI50 was 90.5 µM.

And the TGI [55]?
The TGI was 391 µM.

What about the GI50 [56] of the same molecule?
Its GI50 is 138 µM.

And the TGI [56]?
The TGI was > 90.2 µM and 375 µM.

What about the GI50 [57] of the same molecule?
Its GI50 is 129 µM.

What about the TGI [57] of the same molecule?
The TGI was greater than 500 µM.
